Laboratory results reported in US10363253B2, “Combination products for the treatment of RSV” (priority 2016, dated 2019).
Read-outs that look alike come from different tables or passages of the source.

Test system: rgRSV224, an engineered RSV strain that encodes for eGFP
Assay type: cell-based
Conditions: A = 0
Experimental: To evaluate their combined antiviral effect against RSV, in vitro combination studies were performed with JNJ-53718678 (“compound A”) and various compounds with different mechanisms-of-action (“compound B”). In short, 9 concentrations of Compound A were combined with 6 or 7 concentrations of a certain compound B. HeLa cells were infected with rgRSV224, an engineered RSV strain that encodes for eGFP (Hallak L K, Spillmann D, Collins P L, Peeples M E. Glycosaminoglycan sulfation requirements for respiratory syncytial virus infection; Journal of Virology (2000), 74(22), 10508-13), in the presence of various concentrations of compound A and compound B individually or in combination.
Compound stock solutions were 5 mM in 100% DMSO, with following exceptions: ribavirin, 20 mM; A 60444, 10 mM; CR9501, 141 μM in PBS; palivizumab, 156 μM in PBS; MDT 637, 100 μM in methanol. First, the compounds were serially diluted in 3-fold dilution series in DMSO; CR9501 and palivizumab were serially diluted in cell culture medium, and MDT 637 in methanol. The concentration series were diluted 100-fold in cell culture medium to achieve a combination matrix. 10 μL of these compound solutions were transferred to black 384-well clear-bottom tissue-culture treated plates. Next, 10 μL of a […] HeLa cell suspension was added to achieve 3000 cells per well. Finally, 10 μL of diluted virus stock was added to achieve an MOI of 1. The final DMSO concentration of all wells was 0.5% DMSO, except for the MDT 637 experiment where it was 0.25% DMSO+0.25% methanol. Each combination of compound concentrations was tested in 4 replicates on 3 separate plates, resulting in a total of 12 replicates. The plates were incubated for 3 days at 37° C. in a humidified atmosphere at 5% CO2. The GFP signal was measured with PerkinElmer EnVision apparatus using a 405 nm filter.
The method of Harbron (Statistics in Medicine, 2010, DOI:10.1002/sim3916) was used to assess synergy. Using the Loewe definition, two compounds are characterized as being additive, synergistic or antagonistic by:
where d1 and d2 represent the doses of the two compounds that in combination produce an effect y, and Dy,1 and Dy,2 represent the doses of the two compounds that produce the same effect, y, when administered as a monotherapy. A 3PL model (3-parameter log-logistic model) was used for the monotherapy dose-response data, where the baseline response was fixed at one.
Following Harbron's approach, the following models were fitted to the data: • “Additive”: assuming no interaction between the two compounds • “Uniform”: assuming a constant interaction index τ across all dose combinations • “Linear A”: assuming the interaction index linearly depends on the log 10 dose of compound A: z=τ1+τ2 log 10(dA) • “Separate A”: assuming the interaction index τ takes a separate value for each dose of compound A The latter two models were also considered for compound B: • “Linear B”: assuming the interaction index linearly τ depends on the log 10 dose of compound B: τ=τ1+τ2 log 10(dB) • “Separate B”: assuming the interaction index τ takes a separate value for each dose of compound B

## palivizumab: monoclonal antibody CAS 188039-54-5
B (palivizumab) = 0.0061
  normalized GFP signal: 1.05
B (palivizumab) = 0.018
  normalized GFP signal: 1.01
B (palivizumab) = 0.055
  normalized GFP signal: 0.97
B (palivizumab) = 0.165
  normalized GFP signal: 1.01
B (palivizumab) = 0.494
  normalized GFP signal: 0.89
B (palivizumab) = 1.482
  normalized GFP signal: 0.33
B (palivizumab) = 4.447
  normalized GFP signal: 0.06
